Data set [1] concerns platelet deposition and thrombus formation on the stent surface. The data set can be described thus: In vitro bovine blood loop model (anti-thrombotic activity). The following applies: FIG. 12, cilostazol in sirolimus/cilostazol coatings. An excerpt:
The anti-thrombotic efficacy of the above-described three configurations is illustrated in FIG. 12. FIG. 12 illustrates the anti-thrombotic properties of the sirolimus/cilostazol combination coatings described above in an in vitro bovine blood loop model. In the in vitro bovine blood loop model, fresh bovine blood is heparinized to adjust for acute clotting time (ACT) of about two hundred (200) seconds. The platelet content in the blood is labeled through the use of Indium 111. In the study, a stent is deployed in a silicone tube, which is part of a closed loop system for blood circulation. The heparinzed blood is circulated through the closed loop system by means of a circulating pump. Activated platelets, fibrin and thrombus builds up on a stent surface over time and reduces the flow rate of blood through the stented loop. The flow is stopped when the flow rate is reduced to fifty (50) percent of the starting value or at ninety (90) minutes if none of the tested stent reduces the flow by fifty (50) percent. The total radioactivity (In 111) on the stent surface is counted by a […] and normalized with the control unit, set as one hundred (100) percent in the chart. […]

Data set [2] can be described thus: Porcine drug elution PK study of dual drug eluting coating (in vivo release). The following applies: after eight (8) days of implantation, single layer configuration of FIG. 15 (FIG. 13). Also on record: species or system pig. From the text:
Another critical parameter for the performance of the thrombus resistance of a device coated with cilostazol is the duration of the drug release from the coating. This is of particular significance in the two weeks after device implantation. In the porcine drug elution PK studies of the dual drug eluting coating, both cilostazol and sirolimus were slowly released from the coating, resulting in a sustained drug release profile. The purpose of the porcine PK study is to assess the local pharmacokinetics of a drug eluting stent at a given implantation time. Normally three stents are implanted in three different coronary arteries in a pig for a given time point and then retrieved for total drug recovery analysis. The stents are retrieved at predetermined time points; namely, 1, 3 and 8 days. The stents are extracted and the total amount of drug remaining on the stents is determined by analysis utilizing HPLC (high performance liquid chromatography) for total drug amount. The difference between the original amount of drug on the stent and the amount of drug retrieved at a given time represents the amount of drug released in that period. The continuous release of drug into surrounding arterial tissue is what prevents the neointimal growth and restenosis in the coronary artery. A normal plot represents the percentage of total drug released (%, y-axis) vs. time of implantation (day, x-axis). […]

A short description of data set [3]: In vitro release kinetics of sirolimus/cilostazol stent coatings. It counts as physicochemical.
Data set [4] in a line: In vivo release kinetics from dual drug reservoir stent, porcine coronary artery model. The note with it: at thirty (30) days, 3.5×17 mm reservoir stent, PLGA75/25, in vivo (FIG. 18). An excerpt:
FIG. 18 graphically illustrates the release kinetic curves for sirolimus 1902 and cilostazol 1904 over a period of thirty (30) days from an in vivo release kinetics study. As illustrated, the release kinetics are similar for both drugs with approximately seventy (70) percent of both drugs being released from the stent at thirty (30) days (sirolimus being a little higher than the cilostazol). A 3.5×17 mm stent with reservoirs was utilized in the study. Each drug was placed individually in a reservoir to create an alternating pattern. The basic construct of each reservoir fill was a base (luminal side of the stent) comprising only polymer (PLGA75/25) and no drug, a drug matrix either comprising 120.4 micro grams of cilostazol and 197.1 micro grams of polymer (PLGA75/25) or 146.9 micro grams of sirolimus and 175.0 micro grams of polymer (PLGA75/25), and a cap comprising only polymer (PLGA75/25). The stent was placed in a standard porcine coronary artery model to evaluate the in vivo release kinetics and tissue concentration of both drugs released from the stent over time.

The conditions of data set [5]: cited from earlier work.

Data on two compounds can be found in US20120130481A1, “LOCAL VASCULAR DELIVERY OF ADENOSINE A2A RECEPTOR AGONISTS IN COMBINATION WITH OTHER AGENTS TO REDUCE MYOCARDIAL INJURY” (priority 2010, published 2012).

Regarding `O=C1CCc2cc(OCCCCc3nnnn3C3CCCCC3)ccc2N1` [cilostazol, 6[4-(1-cyclohexyl-1H-tetrazol-5-yl)-butoxy]-3,4-dihydro-2-(1H)-quinolinone], the thrombus formation result in data set [1] is given as “significantly reduces thrombus formation”. In data set [2], the “drug remained in the drug coating” value is ~80%. Besides, in data set [3] (configuration of FIG. 7 (200 µg BMA) compared with FIG. 9 (100 µg BMA), FIGS. 8 and 10), the “drug release rate, 200 µg vs 100 µg BMA diffusion overcoat” value is on record as “comparatively slower”. Moreover, the “in vitro release rate compared to the dual drug base coating” value in data set [3] (configuration of FIG. 7 vs FIG. 15) is on record as “much faster rate”. Further, the in vitro release in data set [3] (single layer configuration of FIG. 15 (FIG. 14)) is ~35%. In data set [4], the “drug released from the stent” value is on record as ~70%. Further, the solubility in water result in data set [5] was “relatively low solubility in water”.

Regarding `CO[C@H]1C[C@@H]2CC[C@@H](C)[C@@](O)(O2)C(=O)C(=O)N2CCCC[C@H]2C(=O)O[C@H]([C@H](C)C[C@@H]2CC[C@@H](O)[C@H](OC)C2)CC(=O)[C@H](C)/C=C(\C)[C@@H](O)[C@@H](OC)C(=O)[C@H](C)C[C@H](C)/C=C/C=C/C=C/1C` [sirolimus], the “drug remained in the drug coating” value in data set [2] is given as ~80%. Also, the “drug released from the stent” value in data set [4] is given as ~70%.
